Tests used:
mouse sperm = experiment: Ability of mouse sperm to fertilize oocytes after incubation in capacitation medium (in vitro fertilization, 2-cell embryos); format: cell-based; conditions: vs control; for percentage of 2-cell embryos vs mature MII oocytes at 24 h post fertilization: 12 hours incubation prior fertilization; for percentage of 2-cell embryos vs mature oocytes at 48 h post fertilization: 5 μM clofilium in M16-BSA medium
Experimental: Mouse sperm was obtained by manual trituration of caudae epididymides from male and were allowed to swim in M2 medium (from Sigma) for 10 minutes. The M2 medium composition in g/L is as follows: CaCl2 0.25; MgSO4 (anhydrous) 0.1649; KCl 0.35635; K2HPO4 0.162; NaHCO3 0.35; NaCl 5.53193; Albumin, Bovine Fraction V 4.0; D-Glucose 1.0; HEPES (for 4-(2-HydroxyEthyl)-1-Piperazine EthaneSulfonic acid)×Na 5.42726; Pyruvic Acid×Na 0.0363; DL-Lactic Acid×Na 2.95). Sperm were then capacitated in M16 medium (from Sigma) with 2% fatty acid-free BSA (for Bovine Serum Albumin) (named “M16-BSA medium”) at 37° C. in a 5% v/v CO2 incubator for different times as specified. M16 medium is a commercial and commonly used medium for in vitro fertilization and culture of preimplantation stage embryos. Oocytes were collected from mature OF1 females, synchronized with 5 units of pregnant mare serum gonadotrophin (PMSG) and 5 units of human chorionic gonadotrophin (HCG). Cumulus were harvested directly from the ampulla and sperm were injected into the M16 droplets containing the cumulus. 1. The first test related to the ability of mouse sperm to fertilize oocytes when incubated prior fertilization in a capacitation medium containing clofilium with regard to a control medium, which is the same capacitation medium but without clofilium. The capacitation medium was M16-BSA medium. The control medium was the M16-BSA medium containing the sperm. It was compared to the same medium further including clofilium at a concentration of 5 μM (in the M16-BSA medium containing the sperm). Sperm was incubated in M16-BSA medium with or without clofilium and then added to M16 droplets containing the cumulus comprising the oocytes. Two-cell embryos were counted at 48 h post insemination (n=3). The number of oocytes reaching the two-cell stage were counted at 48 hours after fertilization. Two different concentrations of clofilium were tested: 0.2 μM of clofilium and 5 μM of clofilium (in the M16-BSA medium containing the sperm). The sperm incubation time prior fertilization was 12 hours. The test related to the ability of mouse sperm to fertilize oocytes, sperm being incubated prior fertilization in a medium containing quinidine with regard to a control medium, without quinidine. The control medium was the M16-BSA medium containing the sperm (“control”). It was compared to the same medium further including quinidine, at various concentrations 5 μM quinidine (“5 μM quinidine”), 10 μM quinidine (“10 μM quinidine”), 25 μM quinidine (“25 μM quinidine”) and 100 μM quinidine (“100 μM quinidine”).

bovine sperm = experiment: CASA motility of bovine sperm subpopulation with VCL >150 μm/s, sperm frozen with clofilium; format: cell-based; conditions: bovine sperm frozen with 0.2 μM clofilium, 24 h in capacitation medium with 0.2 μM clofilium, vs control
Experimental: However, only sperm presenting a sufficient velocity are able to cross the protective layers surrounding the egg and thus are competent for fertilizing eggs. To take this into account, sperm presenting a VCL >150 μm/s were selected and their velocity measured at different time (0 h and 24 h) in control condition or in the presence of clofilium. Sperm were frozen without clofilium (control) and with clofilium prior to test their motility. In the second case, clofilium was present during the sperm incubation period and during the capacitation period. Bovine ejaculate was split into two fractions, and diluted 1:1 in either Optixcell (Fraction 1) or Optixcell containing clofilium 0.2 μM (Fraction 2). After 10 minutes of 34° C. incubation, semen was then diluted to a final concentration of 57 million of spermatozoa/ml in Optixcell (Fraction 1) or Optixcell containing clofilium 0.2 μM (Fraction 2). Diluted semen was frozen as described above and stored in liquid nitrogen until in vitro fertilization. Thus, two types of straws were used: control straws and straws containing clofilium (0.2 μM ). Straws were thawed in a water-bath at 37° C. for 45 s. Each straw was wiped with 70° ethanol before opening. […] Spermatozoa presenting a VCL >150 μm/s were selected and their motility was measured using CASA, performed as above in control condition or in the presence of clofilium. […]

Structure (SMILES): CCCCCCC[N+](CC)(CC)CCCCc1ccc(Cl)cc1 [clofilium]
- percentage of 2-cell embryos vs mature MII oocytes at 24 h post fertilization (mouse sperm; 0.2 μM clofilium): improves the mouse in vitro fertilization outcome
- percentage of 2-cell embryos vs mature oocytes at 48 h post fertilization (mouse sperm; 3 h incubation period prior fertilization): not significantly different than that of control
- percentage of 2-cell embryos vs mature oocytes at 48 h post fertilization (mouse sperm; long incubation periods (>3 hours) prior fertilization): higher number of 2-cell stages than what was observed with the control
- percentage of 2-cell embryos vs mature oocytes at 48 h post fertilization (mouse sperm; short incubation periods (<3 hours) prior fertilization): positive effect
- percentage of 2-cell embryos vs mature MII oocytes at 24 h post fertilization (mouse sperm; 5 μM clofilium): potent
- motility (in terms of VCL) of sperm subpopulation with VCL >150 μm/s (bovine sperm): higher mean velocity

— US20230292743A1, “Method for increasing the lifespan and motility of animal sperm using an inhibitor of Slo3 potassium channel” (IMV TECHNOLOGIES, priority 2017, published 2023)
